Data taken from PubChem BioAssay (NCI).
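Exposure lasted 48 hours, with cells grown in 96-well plates and compounds tested at five concentrations. GI50: concentration for 50% inhibition of growth. TGI is the concentration that stops growth completely.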

Columns and labels:
Test in all cases: DTP human tumour cell line panel, 48 h
786-0 renal = tested on: 786-0 renal
A498 renal = tested on: A498 renal
A549 NSCLC = tested on: A549 NSCLC
ACHN renal = tested on: ACHN renal
BT-549 breast = tested on: BT-549 breast
CAKI-1 renal = tested on: CAKI-1 renal
CCRF-CEM leukemia = tested on: CCRF-CEM leukemia
COLO 205 colon = tested on: COLO 205 colon
DU-145 prostate = tested on: DU-145 prostate
EKVX NSCLC = tested on: EKVX NSCLC
HCC-2998 colon = tested on: HCC-2998 colon
HCT-116 colon = tested on: HCT-116 colon
HCT-15 colon = tested on: HCT-15 colon
HL-60(TB) leukemia = tested on: HL-60(TB) leukemia
HOP-62 NSCLC = tested on: HOP-62 NSCLC
HOP-92 NSCLC = tested on: HOP-92 NSCLC
HS 578T breast = tested on: HS 578T breast
HT29 colon = tested on: HT29 colon
IGROV1 ovarian = tested on: IGROV1 ovarian
K-562 leukemia = tested on: K-562 leukemia
KM12 colon = tested on: KM12 colon
LOX IMVI melanoma = tested on: LOX IMVI melanoma
M14 melanoma = tested on: M14 melanoma
MCF7 breast = tested on: MCF7 breast
MDA-MB-231 breast = tested on: MDA-MB-231 breast
MDA-MB-435 = tested on: MDA-MB-435
MOLT-4 leukemia = tested on: MOLT-4 leukemia
NCI-H226 lung = tested on: NCI-H226 lung
NCI-H23 lung = tested on: NCI-H23 lung
NCI-H460 lung = tested on: NCI-H460 lung
NCI-H522 lung = tested on: NCI-H522 lung
NCI/ADR-RES ovarian = tested on: NCI/ADR-RES ovarian
OVCAR-3 ovarian = tested on: OVCAR-3 ovarian
OVCAR-4 ovarian = tested on: OVCAR-4 ovarian
OVCAR-5 ovarian = tested on: OVCAR-5 ovarian
OVCAR-8 ovarian = tested on: OVCAR-8 ovarian
PC-3 prostate = tested on: PC-3 prostate
RPMI-8226 leukemia = tested on: RPMI-8226 leukemia
RXF 393 renal = tested on: RXF 393 renal
SF-268 CNS = tested on: SF-268 CNS
SF-295 CNS = tested on: SF-295 CNS
SF-539 CNS = tested on: SF-539 CNS
SK-MEL-2 melanoma = tested on: SK-MEL-2 melanoma
SK-MEL-28 melanoma = tested on: SK-MEL-28 melanoma
SK-MEL-5 melanoma = tested on: SK-MEL-5 melanoma
SK-OV-3 ovarian = tested on: SK-OV-3 ovarian
SN12C renal = tested on: SN12C renal
SNB-19 CNS = tested on: SNB-19 CNS
SNB-75 CNS = tested on: SNB-75 CNS
SR leukemia = tested on: SR leukemia
SW-620 colon = tested on: SW-620 colon
TK-10 renal = tested on: TK-10 renal
U251 CNS = tested on: U251 CNS
UACC-257 melanoma = tested on: UACC-257 melanoma
UACC-62 melanoma = tested on: UACC-62 melanoma
UO-31 renal = tested on: UO-31 renal
MALME-3M melanoma = tested on: MALME-3M melanoma
T-47D breast = tested on: T-47D breast

CCN1C(=O)N(CC)C2C1NN=c1s/c(=C\c3cccs3)c(=O)n12 (stereo unspecified)
GI50 (786-0 renal): 1030 nM
TGI (786-0 renal): > 100000 nM
GI50 (A498 renal): 21 nM
TGI (A498 renal): 81.3 nM
GI50 (A549 NSCLC): 244 nM
TGI (A549 NSCLC): > 100000 nM
GI50 (ACHN renal): 253 nM
TGI (ACHN renal): > 100000 nM
GI50 (BT-549 breast): 443 nM
TGI (BT-549 breast): > 100000 nM
GI50 (CAKI-1 renal): 74.5 nM
TGI (CAKI-1 renal): > 100000 nM
GI50 (CCRF-CEM leukemia): 256 nM
TGI (CCRF-CEM leukemia): > 100000 nM
GI50 (COLO 205 colon): 154 nM
TGI (COLO 205 colon): > 100000 nM
GI50 (DU-145 prostate): 281 nM
TGI (DU-145 prostate): > 29900 nM
TGI (EKVX NSCLC): > 100000 nM
GI50 (HCC-2998 colon): 257 nM
TGI (HCC-2998 colon): > 100000 nM
GI50 (HCT-116 colon): 90.3 nM
TGI (HCT-116 colon): > 100000 nM
GI50 (HCT-15 colon): 57.5 nM
TGI (HCT-15 colon): > 100000 nM
GI50 (HL-60(TB) leukemia): 225 nM
TGI (HL-60(TB) leukemia): 707 nM
GI50 (HOP-62 NSCLC): 302 nM
TGI (HOP-62 NSCLC): > 100000 nM
GI50 (HOP-92 NSCLC): > 25800 nM
TGI (HOP-92 NSCLC): > 100000 nM
GI50 (HS 578T breast): 112 nM
GI50 (HT29 colon): 55.7 nM
TGI (HT29 colon): > 100000 nM
GI50 (IGROV1 ovarian): 217 nM
TGI (IGROV1 ovarian): > 100000 nM
GI50 (K-562 leukemia): 55.1 nM
TGI (K-562 leukemia): > 100000 nM
GI50 (KM12 colon): 54.5 nM
TGI (KM12 colon): > 82600 nM
GI50 (LOX IMVI melanoma): 139 nM
TGI (LOX IMVI melanoma): > 100000 nM
GI50 (M14 melanoma): 105 nM
TGI (M14 melanoma): > 100000 nM
GI50 (MCF7 breast): 49.6 nM
TGI (MCF7 breast): > 100000 nM
GI50 (MDA-MB-231 breast): 468 nM
TGI (MDA-MB-231 breast): > 100000 nM
GI50 (MDA-MB-435): 26.8 nM
TGI (MDA-MB-435): 82.8 nM
GI50 (MOLT-4 leukemia): 396 nM
TGI (MOLT-4 leukemia): > 100000 nM
GI50 (NCI-H226 lung): 2760 nM
TGI (NCI-H226 lung): > 23000 nM
GI50 (NCI-H23 lung): 375 nM
TGI (NCI-H23 lung): > 100000 nM
GI50 (NCI-H460 lung): 119 nM
GI50 (NCI-H522 lung): 97.4 nM
TGI (NCI-H522 lung): > 100000 nM
GI50 (NCI/ADR-RES ovarian): 83.1 nM
TGI (NCI/ADR-RES ovarian): > 100000 nM
GI50 (OVCAR-3 ovarian): 46.2 nM
GI50 (OVCAR-4 ovarian): 1820 nM
TGI (OVCAR-4 ovarian): > 100000 nM
GI50 (OVCAR-5 ovarian): 445 nM
TGI (OVCAR-5 ovarian): > 100000 nM
GI50 (OVCAR-8 ovarian): 424 nM
TGI (OVCAR-8 ovarian): > 100000 nM
GI50 (PC-3 prostate): 120 nM
TGI (PC-3 prostate): > 100000 nM
GI50 (RPMI-8226 leukemia): 412 nM
TGI (RPMI-8226 leukemia): > 100000 nM
GI50 (RXF 393 renal): 141 nM
TGI (RXF 393 renal): > 100000 nM
GI50 (SF-268 CNS): 1670 nM
TGI (SF-268 CNS): > 100000 nM
GI50 (SF-295 CNS): 69 nM
TGI (SF-295 CNS): > 100000 nM
GI50 (SF-539 CNS): 94.9 nM
TGI (SF-539 CNS): 812 nM
GI50 (SK-MEL-2 melanoma): 1410 nM
TGI (SK-MEL-2 melanoma): > 100000 nM
TGI (SK-MEL-28 melanoma): > 100000 nM
GI50 (SK-MEL-5 melanoma): 218 nM
TGI (SK-MEL-5 melanoma): 4260 nM
GI50 (SK-OV-3 ovarian): 649 nM
TGI (SK-OV-3 ovarian): > 100000 nM
GI50 (SN12C renal): 555 nM
TGI (SN12C renal): > 100000 nM
GI50 (SNB-19 CNS): 506 nM
TGI (SNB-19 CNS): > 100000 nM
GI50 (SNB-75 CNS): 97.6 nM
TGI (SNB-75 CNS): > 100000 nM
GI50 (SR leukemia): 57.6 nM
TGI (SR leukemia): > 100000 nM
GI50 (SW-620 colon): 66.7 nM
TGI (SW-620 colon): > 100000 nM
GI50 (TK-10 renal): > 100000 nM
TGI (TK-10 renal): > 100000 nM
GI50 (U251 CNS): 245 nM
TGI (U251 CNS): > 100000 nM
GI50 (UACC-257 melanoma): > 100000 nM
TGI (UACC-257 melanoma): > 100000 nM
TGI (UACC-62 melanoma): > 100000 nM
GI50 (UO-31 renal): 594 nM
TGI (UO-31 renal): > 100000 nM

Cc1ccc(S(=O)(=O)NC(=O)NCCc2ccc(O)c(O)c2)cc1
TGI (786-0 renal): > 100000 nM
TGI (A498 renal): > 100000 nM
TGI (A549 NSCLC): > 100000 nM
TGI (ACHN renal): > 100000 nM
TGI (CAKI-1 renal): > 100000 nM
TGI (COLO 205 colon): > 100000 nM
TGI (DU-145 prostate): > 100000 nM
TGI (EKVX NSCLC): > 100000 nM
TGI (HCC-2998 colon): > 100000 nM
TGI (HCT-116 colon): > 100000 nM
TGI (HCT-15 colon): > 100000 nM
TGI (HL-60(TB) leukemia): > 100000 nM
TGI (HOP-62 NSCLC): > 100000 nM
TGI (HOP-92 NSCLC): > 100000 nM
TGI (HS 578T breast): > 100000 nM
TGI (HT29 colon): > 100000 nM
TGI (IGROV1 ovarian): > 100000 nM
TGI (K-562 leukemia): > 100000 nM
TGI (KM12 colon): > 100000 nM
TGI (LOX IMVI melanoma): > 100000 nM
TGI (M14 melanoma): > 100000 nM
TGI (MALME-3M melanoma): > 100000 nM
TGI (MCF7 breast): > 100000 nM
TGI (MDA-MB-231 breast): > 100000 nM
TGI (MDA-MB-435): > 100000 nM
TGI (MOLT-4 leukemia): > 100000 nM
TGI (NCI-H226 lung): > 100000 nM
TGI (NCI-H23 lung): > 100000 nM
TGI (NCI-H460 lung): > 100000 nM
TGI (NCI-H522 lung): > 100000 nM
TGI (NCI/ADR-RES ovarian): > 100000 nM
TGI (OVCAR-3 ovarian): > 100000 nM
TGI (OVCAR-4 ovarian): > 100000 nM
TGI (OVCAR-5 ovarian): > 100000 nM
TGI (OVCAR-8 ovarian): > 100000 nM
TGI (PC-3 prostate): > 100000 nM
TGI (RPMI-8226 leukemia): > 100000 nM
TGI (RXF 393 renal): > 100000 nM
TGI (SF-268 CNS): > 100000 nM
TGI (SF-295 CNS): > 100000 nM
TGI (SF-539 CNS): > 100000 nM
TGI (SK-MEL-2 melanoma): > 100000 nM
TGI (SK-MEL-28 melanoma): > 100000 nM
TGI (SK-MEL-5 melanoma): > 100000 nM
TGI (SK-OV-3 ovarian): > 100000 nM
TGI (SNB-19 CNS): > 100000 nM
TGI (SNB-75 CNS): > 100000 nM
TGI (SR leukemia): > 100000 nM
TGI (SW-620 colon): > 100000 nM
TGI (TK-10 renal): > 100000 nM
TGI (U251 CNS): > 100000 nM
TGI (UACC-62 melanoma): > 100000 nM
TGI (UO-31 renal): > 100000 nM

COc1ccc(N2C(=O)/C(=C/C(Cl)=C/c3ccc([N+](=O)[O-])cc3)SC2=S)cc1
GI50 (HOP-62 NSCLC): 2120 nM
TGI (HOP-62 NSCLC): > 100000 nM
GI50 (HS 578T breast): 3280 nM
TGI (HS 578T breast): > 37900 nM
GI50 (K-562 leukemia): 555 nM
TGI (K-562 leukemia): > 100000 nM
GI50 (MCF7 breast): 393 nM
TGI (MCF7 breast): > 100000 nM
GI50 (MDA-MB-231 breast): 1690 nM
TGI (MDA-MB-231 breast): > 100000 nM
GI50 (MOLT-4 leukemia): 679 nM
TGI (MOLT-4 leukemia): > 100000 nM
GI50 (NCI-H226 lung): 4230 nM
TGI (NCI-H226 lung): > 100000 nM
GI50 (NCI/ADR-RES ovarian): 562 nM
TGI (NCI/ADR-RES ovarian): > 100000 nM
GI50 (OVCAR-8 ovarian): 462 nM
TGI (OVCAR-8 ovarian): > 100000 nM
GI50 (RPMI-8226 leukemia): 268 nM
TGI (RPMI-8226 leukemia): 727 nM
GI50 (SF-268 CNS): 2950 nM
TGI (SF-268 CNS): > 100000 nM
GI50 (SK-MEL-2 melanoma): > 21300 nM
TGI (SK-MEL-2 melanoma): > 100000 nM
GI50 (SR leukemia): 312 nM
TGI (SR leukemia): 22000 nM
GI50 (T-47D breast): 725 nM
TGI (T-47D breast): > 100000 nM
GI50 (TK-10 renal): 2760 nM
TGI (TK-10 renal): > 100000 nM
GI50 (UACC-257 melanoma): 2880 nM
TGI (UACC-257 melanoma): > 100000 nM
